Structures can show the parent of a compound that is named as a salt. Where two headings read alike, the source gives them in different places.
Target: interaction between p53 and MDM2 proteins (recombinant GST-tagged MDM2) (Homo sapiens, UniProt Q00987)
Experiment: HTRF assay of inhibition of the p53-MDM2 interaction (GST-MDM2 / biotinylated p53 peptide);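 further: FRET read-out from Eu-labelled anti-GST antibody to streptavidin-APC, with 90 nM N-terminally biotinylated p53 peptide and 160 ng/ml GST-MDM2 in Tris-borate saline containing 1 mM DTT, 384-well format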
Format: binding
Conditions: HTRF, 0.02% BSA, 37° C. 1 h
Description: The ability of the compounds to inhibit the interaction between p53 and MDM2 proteins was measured by an HTRF (homogeneous time-resolved fluorescence) assay in which recombinant GST-tagged MDM2 binds to a peptide that resembles the MDM2-interacting region of p53 (Lane et al.). Binding of GST-MDM2 protein and p53-peptide (biotinylated on its N-terminal end) is registered by the FRET (fluorescence resonance energy transfer) between Europium (Eu)-labeled anti-GST antibody and streptavidin-conjugated Allophycocyanin (APC).
Test is performed in black flat-bottom 384-well plates (Costar) in a total volume of 40 uL containing: 90 nM biotinylate peptide, 160 ng/ml GST-MDM2, 20 nM streptavidin-APC (PerkinElmerWallac), 2 nM Eu-labeled anti-GST-antibody (PerkinElmerWallac), 0.02% bovine serum albumin (BSA), 1 mM dithiothreitol (DTT) and 20 mM Tris-borate saline (TBS) buffer as follows: Add 10 uL of GST-MDM2 (640 ng/ml working solution) in reaction buffer to each well. […] Incubate at 37° C. for 1 h.

Sequence of interaction between p53 and MDM2 proteins (recombinant GST-tagged MDM2) (Q00987 whole entry): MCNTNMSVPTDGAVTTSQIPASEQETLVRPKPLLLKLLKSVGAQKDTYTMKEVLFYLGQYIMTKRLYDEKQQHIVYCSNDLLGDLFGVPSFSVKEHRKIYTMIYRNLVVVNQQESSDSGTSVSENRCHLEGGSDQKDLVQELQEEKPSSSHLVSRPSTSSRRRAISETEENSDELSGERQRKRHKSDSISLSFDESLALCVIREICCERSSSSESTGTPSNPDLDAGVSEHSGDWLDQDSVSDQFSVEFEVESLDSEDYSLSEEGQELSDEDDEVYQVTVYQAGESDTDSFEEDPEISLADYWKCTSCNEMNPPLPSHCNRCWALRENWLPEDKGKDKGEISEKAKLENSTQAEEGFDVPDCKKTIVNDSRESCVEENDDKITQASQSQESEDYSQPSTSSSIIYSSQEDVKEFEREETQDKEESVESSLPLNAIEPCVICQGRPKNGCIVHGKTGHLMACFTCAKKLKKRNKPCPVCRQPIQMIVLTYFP

Compound	IC50 (read-out: IC50 (uM, 0.02% BSA)) [µM]	IC50 [µM]
4-{[(2R,3S,4R,5S)-4-(4-Chloro-2-fluoro-phenyl)-3-(3-chloro-2-fluoro-phenyl)-4-cyano-5-(2,2-dimethyl-propyl)-pyrrolidine-2-carbonyl]-amino}-3-methoxy-benzoic acid, dodecaethylene glycol ester [Example 43]	0.0062	–
4-{[(2R,3S,4R,5S)-4-(4-Chloro-2-fluoro-phenyl)-3-(3-chloro-2-fluoro-phenyl)-4-cyano-5-(2,2-dimethyl-propyl)-pyrrolidine-2-carbonyl]-amino}-3-methoxy-benzoic acid, polyethylene glycol-200 ester, trifluoroacetate salt [Example 45]	0.0105	–
4-{[(2R,3S,4R,5S)-4-(4-Chloro-2-fluoro-phenyl)-3-(3-chloro-2-fluoro-phenyl)-4-cyano-5-(2,2-dimethyl-propyl)-pyrrolidine-2-carbonyl]-amino}-3-methoxy-benzoic acid, polyethylene glycol-600 ester, trifluoroacetate salt [Example 44]	0.0113	–
COc1cc(C(=O)NC(C)CO)ccc1NC(=O)[C@@H]1N[C@@H](CC(C)(C)C)[C@](C#N)(c2ccc(Cl)cc2F)[C@H]1c1cccc(Cl)c1F (mixture of isomers) [Example 14, Rac-(2R,3S,4R,5S)-4-(4-Chloro-2-fluoro-phenyl)-3-(3-chloro-2-fluoro-phenyl)-4-cyano-5-(2,2-dimethyl-propyl)-pyrrolidine-2-carboxylic acid [4-(2-hydroxy-1-methyl-ethylcarbamoyl)-2-methoxy-phenyl]-amide]	–	0.00675
COc1cc(C(=O)OCCO)ccc1NC(=O)[C@@H]1N[C@@H](CC(C)(C)C)[C@](C#N)(c2ccc(Cl)cc2F)[C@H]1c1cccc(Cl)c1F [Example 1, 2-Hydroxyethyl 4-((2R,3S,4R,5S)-3-(3-chloro-2-fluorophenyl)-4-(4-chloro-2-fluorophenyl)-4-cyano-5-neopentylpyrrolidine-2-carboxamido)-3-methoxybenzoate]	–	0.0111
COc1cc(C(=O)OCCOC(=O)[C@H](C)N)ccc1NC(=O)[C@@H]1N[C@@H](CC(C)(C)C)[C@](C#N)(c2ccc(Cl)cc2F)[C@H]1c1cccc(Cl)c1F [Example 4, 4-{[(2R,3S,4R,5S)-3-(3-Chloro-2-fluoro-phenyl)-4-(4-chloro-2-fluoro-phenyl)-4-cyano-5-(2,2-dimethyl-propyl)-pyrrolidine-2-carbonyl]-amino}-3-methoxy-benzoic acid 2-((S)-2-amino-propionyloxy)-ethyl ester]	–	0.00984
COc1cc(C(=O)OCCOC(=O)[C@@H](C)N)ccc1NC(=O)[C@@H]1N[C@@H](CC(C)(C)C)[C@](C#N)(c2ccc(Cl)cc2F)[C@H]1c1cccc(Cl)c1F [Example 6, 4-{[(2R,3S,4R,5S)-3-(3-Chloro-2-fluoro-phenyl)-4-(4-chloro-2-fluoro-phenyl)-4-cyano-5-(2,2-dimethyl-propyl)-pyrrolidine-2-carbonyl]-amino}-3-methoxy-benzoic acid 2-((R)-2-amino-propionyloxy)-ethyl ester]	–	0.0371
COc1cc(C(=O)OCCN(C)C)ccc1NC(=O)[C@@H]1N[C@@H](CC(C)(C)C)[C@](C#N)(c2ccc(Cl)cc2F)[C@H]1c1cccc(Cl)c1F [Example 7, 2-(Dimethylamino)ethyl 4-((2R,3S,4R,5S)-3-(3-chloro-2-fluorophenyl)-4-(4-chloro-2-fluorophenyl)-4-cyano-5-neopentylpyrrolidine-2-carboxamido)-3-methoxybenzoate]	–	0.0146
COc1cc(C(=O)OCC2COC(C)(C)O2)ccc1NC(=O)[C@@H]1N[C@@H](CC(C)(C)C)[C@](C#N)(c2ccc(Cl)cc2F)[C@H]1c1cccc(Cl)c1F (stereo partly drawn) [Example 8, (2,2-Dimethyl-1,3-dioxolan-4-yl)methyl 4-((2R,3S,4R,5S)-3-(3-chloro-2-fluorophenyl)-4-(4-chloro-2-fluorophenyl)-4-cyano-5-neopentylpyrrolidine-2-carboxamido)-3-methoxybenzoate]	–	0.00957
COc1cc(C(=O)OCC(CO)CO)ccc1NC(=O)[C@@H]1N[C@@H](CC(C)(C)C)[C@](C#N)(c2ccc(Cl)cc2F)[C@H]1c1cccc(Cl)c1F [Example 9, 3-Hydroxy-2-(hydroxymethyl)propyl 4-((2R,3S,4R,5S)-3-(3-chloro-2-fluorophenyl)-4-(4-chloro-2-fluorophenyl)-4-cyano-5-neopentylpyrrolidine-2-carboxamido)-3-methoxybenzoate]	–	0.012
COCCOC(=O)c1ccc(NC(=O)[C@@H]2N[C@@H](CC(C)(C)C)[C@](C#N)(c3ccc(Cl)cc3F)[C@H]2c2cccc(Cl)c2F)c(OC)c1 [Example 10, 2-Methoxyethyl 4-((2R,3S,4R,5S)-3-(3-chloro-2-fluorophenyl)-4-(4-chloro-2-fluorophenyl)-4-cyano-5-neopentylpyrrolidine-2-carboxamido)-3-methoxybenzoate]	–	0.0107
COc1cc(C(=O)OCCI)ccc1NC(=O)[C@@H]1N[C@@H](CC(C)(C)C)[C@](C#N)(c2ccc(Cl)cc2F)[C@H]1c1cccc(Cl)c1F [Example 11, 2-Iodoethyl 4-((2R,3S,4R,5S)-3-(3-chloro-2-fluorophenyl)-4-(4-chloro-2-fluorophenyl)-4-cyano-5-neopentylpyrrolidine-2-carboxamido)-3-methoxybenzoate]	–	0.0117
COc1cc(C(=O)OCCOP(=O)(OC(C)(C)C)OC(C)(C)C)ccc1NC(=O)[C@@H]1N[C@@H](CC(C)(C)C)[C@](C#N)(c2ccc(Cl)cc2F)[C@H]1c1cccc(Cl)c1F [Example 12, 2-(Di-tert-butoxyphosphoryloxy)ethyl 4-((2R,3S,4R,5S)-3-(3-chloro-2-fluorophenyl)-4-(4-chloro-2-fluorophenyl)-4-cyano-5-neopentylpyrrolidine-2-carboxamido)-3-methoxybenzoate]	–	0.00959
COc1cc(C(=O)OCCOP(=O)(O)O)ccc1NC(=O)[C@@H]1N[C@@H](CC(C)(C)C)[C@](C#N)(c2ccc(Cl)cc2F)[C@H]1c1cccc(Cl)c1F [Example 13, 2-(Phosphonooxy)ethyl 4-((2R,3S,4R,5S)-3-(3-chloro-2-fluorophenyl)-4-(4-chloro-2-fluorophenyl)-4-cyano-5-neopentylpyrrolidine-2-carboxamido)-3-methoxybenzoate, trifluoroacetate salt]	–	0.00454
CCN(CC)CCOC(=O)c1ccc(NC(=O)[C@@H]2N[C@@H](CC(C)(C)C)[C@](C#N)(c3ccc(Cl)cc3F)[C@H]2c2cccc(Cl)c2F)c(OC)c1 [Example 16, 4-{[(2R,3S,4R,5S)-4-(4-Chloro-2-fluoro-phenyl)-3-(3-chloro-2-fluoro-phenyl)-4-cyano-5-(2,2-dimethyl-propyl)-pyrrolidine-2-carbonyl]-amino}-3-methoxy-benzoic acid 2-diethylamino-ethyl ester]	–	0.0501
COc1cc(C(=O)OC2CCN(C)CC2)ccc1NC(=O)[C@@H]1N[C@@H](CC(C)(C)C)[C@](C#N)(c2ccc(Cl)cc2F)[C@H]1c1cccc(Cl)c1F [Example 17, 4-{[(2R,3S,4R,5S)-4-(4-Chloro-2-fluoro-phenyl)-3-(3-chloro-2-fluoro-phenyl)-4-cyano-5-(2,2-dimethyl-propyl)-pyrrolidine-2-carbonyl]-amino}-3-methoxy-benzoic acid 1-methyl-piperidin-4-yl ester]	–	0.0115
COc1cc(C(=O)OCC2CCN(C)CC2)ccc1NC(=O)[C@@H]1N[C@@H](CC(C)(C)C)[C@](C#N)(c2ccc(Cl)cc2F)[C@H]1c1cccc(Cl)c1F [Example 18, 4-{[(2R,3S,4R,5S)-4-(4-Chloro-2-fluoro-phenyl)-3-(3-chloro-2-fluoro-phenyl)-4-cyano-5-(2,2-dimethyl-propyl)-pyrrolidine-2-carbonyl]-amino}-3-methoxy-benzoic acid 1-methyl-piperidin-4-ylmethyl ester]	–	0.024
COc1cc(C(=O)OCCN2CCN(C)CC2)ccc1NC(=O)[C@@H]1N[C@@H](CC(C)(C)C)[C@](C#N)(c2ccc(Cl)cc2F)[C@H]1c1cccc(Cl)c1F [Example 19, 4-{[(2R,3S,4R,5S)-4-(4-Chloro-2-fluoro-phenyl)-3-(3-chloro-2-fluoro-phenyl)-4-cyano-5-(2,2-dimethyl-propyl)-pyrrolidine-2-carbonyl]-amino}-3-methoxy-benzoic acid 2-(4-methyl-piperazin-1-yl)-ethyl ester]	–	0.00558
COc1cc(C(=O)On2nnc3cccnc32)ccc1NC(=O)[C@@H]1N[C@@H](CC(C)(C)C)[C@](C#N)(c2ccc(Cl)cc2F)[C@H]1c1cccc(Cl)c1F [Example 20, 4-{[(2R,3S,4R,5S)-4-(4-Chloro-2-fluoro-phenyl)-3-(3-chloro-2-fluoro-phenyl)-4-cyano-5-(2,2-dimethyl-propyl)-pyrrolidine-2-carbonyl]-amino}-3-methoxy-benzoic acid [1,2,3]triazolo[4,5-b]pyridin-3-yl ester]	–	0.00654
COc1cc(C(=O)OC(C)CN2CCOCC2)ccc1NC(=O)[C@@H]1N[C@@H](CC(C)(C)C)[C@](C#N)(c2ccc(Cl)cc2F)[C@H]1c1cccc(Cl)c1F (stereo partly drawn) [Example 21, 4-{[(2R,3S,4R,5S)-4-(4-Chloro-2-fluoro-phenyl)-3-(3-chloro-2-fluoro-phenyl)-4-cyano-5-(2,2-dimethyl-propyl)-pyrrolidine-2-carbonyl]-amino}-3-methoxy-benzoic acid 1-methyl-2-morpholin-4-yl-ethyl ester]	–	0.0137
COc1cc(C(=O)OCCN2CCOCC2)ccc1NC(=O)[C@@H]1N[C@@H](CC(C)(C)C)[C@](C#N)(c2ccc(Cl)cc2F)[C@H]1c1cccc(Cl)c1F [Example 22, 4-{[(2R,3S,4R,5S)-4-(4-Chloro-2-fluoro-phenyl)-3-(3-chloro-2-fluoro-phenyl)-4-cyano-5-(2,2-dimethyl-propyl)-pyrrolidine-2-carbonyl]-amino}-3-methoxy-benzoic acid 2-morpholin-4-yl-ethyl ester]	–	0.015
CCN(CC)CCNC(=O)c1ccc(NC(=O)[C@@H]2N[C@@H](CC(C)(C)C)[C@](C#N)(c3ccc(Cl)cc3F)[C@H]2c2cccc(Cl)c2F)c(OC)c1 [Example 23, (2R,3S,4R,5S)-4-(4-Chloro-2-fluoro-phenyl)-3-(3-chloro-2-fluoro-phenyl)-4-cyano-5-(2,2-dimethyl-propyl)-pyrrolidine-2-carboxylic acid [4-(2-diethylamino-ethylcarbamoyl)-2-methoxy-phenyl]-amide, hydrochloride]	–	0.00934

Reference: patent publication US9371280B2, “Substituted pyrrolidine-2-carboxamides” (Hoffmann-La Roche Inc., priority 2012, dated 2016)
